# Measurements: US20250041272A1, “COMPOSITIONS AND METHODS FOR TREATING CANCER VIA PTP1B INHIBITION” (priority 2021, published 2025)
# Experiments:
# Type in all cases: cell-based, mouse
# [1] = tested on: macrophage M1 associated gene expression; experiment: Cisplatin treated transwell co-culture of macrophages and B16F10 cells, qRT-PCR
# Method: (§1) Peritoneal macrophage isolation and culture. Peritoneal macrophages were done as described previously(65) from 8-week-old C57BL/6J mice (randomized, both male and female). PBS (Gibco) was injected in the mural peritoneal cavity to release the macrophages. After recovering, cells were centrifuged at 1200 rpm for 5 minutes, resuspended in DMEM high glucose, 10% FBS, 1% penicillin-streptomycin (Gibco) and plated. 2 hours after the last step, cells were washed with PBS and maintained in DMEM/F12 supplemented with 10% FBS, 1% penicillin-streptomycin and 20 ng/ml of M-CSF (Prospec) for 2 days. Macrophages were treated for 24 hours with 50 ng/ml LPS (Sigma Millipore), 100 ng/ml IFNγ (BioLegend), 300 ng/ml PAM3CSK4 (InvivoGen), 107 cells/ml heat killed Listeria Monocytogenes (HKLM) (InvivoGen), 100 ng/ml Flagellin Salmonella typhimurium standard (InvivoGen), 10 ng/ml FSL1 (InvivoGen), 2.5 ug/ml ssRNA40 (InvivoGen), 2.5 ug/ml CL 075 (Tocris), 5 μM ODN1826, 50 μM Fludarabine (SelleckChem), 50 nM Momelotinib (SelleckChem), 5 μM BVT948 (Sigma Millipore), 200 μM PTP1b inhibitor III (Santa Cruz Biotechnology Inc.), 5 μM NSC87877 (Santa Cruz Biotechnology Inc.), 50 μM PTP1b inhibitor (Cayman), 1 mM PTP Inhibitor IV (Santa Cruz Biotechnology Inc.), 1 μM TSC401, 300 nM UNC2371 (SelleckChem), 300 nM BMS777607 (SelleckChem), 300 nM LDC1267 (SelleckChem) 1.5 μg/ml recombinant Pros1 (R&D systems), 200 ng/ml recombinant Gas6 (R&D systems) or 10-500 μM Cisplatin (Tocris). All components were added as described in the text. Cell culture. B16F10 (CRL-6475, ATCC), Lewis lung carcinoma (LLC) (CRL-1642, ATCC), KPC2713 (Yuliya Pylayeva-Gupta laboratory, UNC) and MDA-MB-231 (HTB-26, ATCC) were cultured in DMEM high glucose supplemented with 10% FBS, 1% penicillin-streptomycin (Gibco). GEMM6 (Dr. Alisha Holtzhausen, UNC), KPPC4662 (Dr. Yuliya Pylayeva-Gupta laboratory, UNC), KPPC4548 (Yuliya Pylayeva-Gupta laboratory, UNC) and E0771 (CRL-3461, ATCC) were maintained in RPMI 1640 supplemented with 10% PBS, 1% penicillin/streptomycin (Gibco) while PyMT cells were cultured in Ham's F-12K with 10% FBS, 1% penicillin-streptomycin (Gibco). Transwell assays were performed in 0.4 μm polyester membrane insert culture plates (Corning). 500,000 cells of each line were plated per well in DMEM/F12 supplemented with 10% FBS, 1% penicillin-streptomycin and 20 ng/ml of M-CSF for culture with mouse macrophages. SC cells (CRL-9855, ATCC) were cultured in IMDM with 10% FBS and 1% penicillin-streptomycin (Gibco). In transwell experiments with the SC cell line, cancer cells were also resuspended in IMDM media.
# qRT-PCR. RNA was isolated using the RNeasy Plus Mini Kit (Quiagen) and cDNA was prepared using the Reverse Transcription System (Promega) with one-hour reverse transcription process. qRT-PCR was done using the PowerUp™ SYBR™ Green Master Mix (Applied Biosystems) on a QuantStudio Pro Real-time PCR system (Applied Biosystems) with a 95° C. pretreatment of 10 min, 50 cycles of 95° C., 10 sec and 60° C., 1 min and melt curve at the end. Analysis was performed with the 2^−ΔΔCT method(136).
# [2] = tested on: Stat1 phosphorylation and MyD88 in macrophages; experiment: Transwell co-culture of M1 induced macrophages with tumor cells plus inhibitors (Western blot, qRT-PCR); conditions: 24 hours
# Method: as §1, with “GEMM6 (Dr. Alisha Holtzhausen, UNC), KPPC4662 (Dr. Yuliya Pylayeva-Gupta laboratory, UNC), KPPC4548 (Yuliya Pylayeva-Gupta laboratory, UNC) and E0771 (CRL-3461, ATCC) were maintained in RPMI 1640 supplemented with 10% PBS, 1% penicillin/streptomycin (Gibco) while PyMT cells were cultured in Ham's F-12K with 10% FBS, 1% penicillin-streptomycin (Gibco). Transwell assays were performed in 0.4 μm polyester membrane insert culture plates (Corning). 500,000 cells of each line were plated per well in DMEM/F12 supplemented with 10% FBS, 1% penicillin-streptomycin and 20 ng/ml of M-CSF for culture with mouse macrophages. SC cells (CRL-9855, ATCC) were cultured in IMDM with 10% FBS and 1% penicillin-streptomycin (Gibco). In transwell experiments with the SC cell line, cancer cells were also resuspended in IMDM media.” left out
# [3] = tested on: MyD88 protein in macrophages; experiment: Immunofluorescent staining of M1 macrophages cultured in B16F10 conditioned medium; conditions: 24 hours
# Method: Immunofluorescence staining and quantitation. After treatments, mouse macrophages were fixed with 4% formaldehyde (Electron Microscopy Sciences) and permeabilized with acetone (Fisher scientific). Samples were blocked using BlockAid blocking solution (Thermofisher scientific), were incubated with primary antibodies to MyD88 (Cell signaling), CD86 (Biolegend) and total STAT1 (Cell signaling) and Alexa Fluor 488-labeled secondary antibody (LifeTech) and were mounted with SlowFade Gold Antifade Mountant with DAPI (Invitrogen). Images were taken with using a BZ-X810 all-in-one fluorescence microscope (Keyence). Fluorescence intensity was measured with BZ-X800 software while colocalization was analyzed using ImageJ software with JACoP plugin (NIH)
substance,measurement,setting,value
BVT948,"macrophage pro-inflammatory gene expression, PTP1b inhibition in combination with Cisplatin","[1]; BVT948 with Cisplatin 50 μM to 500 μM, wildtype macrophages with B16F10 cells","able to restore macrophage pro-inflammatory gene expression, in a dose dependent manner"
same,M1 gene expression in MyD88 knockout macrophages,"[1]; increasing Cisplatin, with or without BVT948","Neither increasing concentrations of Cisplatin, nor PTP1 b inhibition, were able to restore M1 gene expression"
same,Stat1 phosphorylation at Tyrosine 701 and Serine 727,[2],increased
same,MyD88 protein level and localization,[3],increased MyD88
